Like-named read-outs stand apart in the source and are kept apart here.
Assays:
[1] = molecular target: T1, human NaX-QTT (Homo sapiens, UniProt Q01118, F724Q/I1189T/I1492T); test: Whole-cell patch clamp of HEK293T cells expressing NaX-QTT, effect of extracellular Ca^2+; type: cell-based
T1 construct: expressed in transfected cells; host or cells: Xenopus laevis oocytes injected with in vitro transcribed capped RNA
Protocol: (§1) FIGS. 5A-C show pharmacology of the human NaX-QTT channel. FIG. 5A, left and middle panels, show representative I-V currents from HEK293 cells expressing human NaX-QTT with indicated extracellular monovalent cations with or without indicated amounts of CaCl2 in the extracellular solution. Voltage ramp from −80 to +80 mV was applied.
HEK293T cells expressing NaX- or NaX-QTT-eGFP-2×FLAG were seeded on glass cover slips an hour before whole-cell patch-clamping experiments. For a more physiological condition (FIGS. 4D and 7B), the extracellular solution contained 150 mM NaCl, 5 mM KCl, 0.5 mM CaCl2, 1.2 mM MgCl2, 10 mM HEPES, and 13 mM D-(+)-glucose (pH 7.4) with NaOH, ˜320 mOsm/L, and the intracellular solution contained 140 mM CsCl, 10 mM CsF, 5 mM EGTA, 10 mM HEPES, and 2 mM Na2ATP (pH 7.2) with CsOH, ˜304 mOsm/L. To determine if NaX-QTT was cation-permeable, we first substituted all extracellular cations with NMDG^+ (FIG. 4E). Extracellular solution contained 150 mM NMDG and 10 mM HEPES (D-(+)-glucose was added accordingly to achieve osmolarity ˜325 mOsm/L and pH was adjusted to 7.4 with hydrochloric acid). To determine if NaX-QTT was anion-permeable, we substituted all Cl^− ions in both intra- and extracellular solutions with the large anion methanesulfonate (MS^−) (FIG. 15C). The extracellular solution contained 150 mM NaMS and 10 mM HEPES (D-(+)-glucose was added accordingly to achieve osmolarity ˜325 mOsm/L, and pH was adjusted to 7.4 with NaOH). […]
(§2) For data analysis, raw current traces were typically filtered using 8-pole Bessel low-pass filter at 500-800 Hz. […] For ion-selectivity experiments performed with Na^+ intracellular solution (FIGS. 4E and 5A), liquid junction potential (LJP) was measured with reference to the Na^+ intracellular solution and corrected after recording. Relative ion permeabilities (PNa/PX) were calculated using the equation PX/PNa=[Na^+]IC exp(ErevF/RT)/[X^+]EC (X=Na, K, Li or Cs), where F is Faraday's constant, R is the gas constant, […], and Erevs were measured from the −80- to +80-m V ramp (corrected for LJP).

[2] = molecular target: T1, human NaX-QTT; test: Two-electrode voltage-clamp of Xenopus laevis oocytes expressing human NaX-QTT with blockers or multivalent cations; type: cell-based
Protocol: as §1
Oocytes were prepared as previously described^68. Healthy-looking stage V-VI oocytes were injected with 2.5-40 ng of RNA (in 5-41 nL) using a Nanoliter 2010 injector (World Precision Instruments). When excluding one or more construct, an equivalent volume of nuclease-free water was added to maintain a constant RNA concentration across different construct combinations. Injected oocytes were kept at 18° C., 140 rpm, in ND96 supplemented with 50 μg/mL gentamicin and 50 μg/mL tetracycline (in mM: 96 NaCl, 2 KCl, 1 MgCl2, 1.8 CaCl2), 2.5 sodium pyruvate, 0.5 theophylline, 5 HEPES; pH 7.4 with NaOH) for two to five days. Two-electrode voltage-clamp measurements were performed at room temperature using a Warner OC-725C Oocyte Clamp amplifier (Warner Instrument Corp, USA) and under constant perfusion with ND96 solution (in mM: 96 NaCl, 2 KCl, 1 MgCl2, 1.8 CaCl2, 5 HEPES; pH 7.4 with NaOH). For ion selectivity experiments, external solutions contained 115 mM of test cations as chloride salts, 1.2 mM CaCl2, 2 mM MgCl2, 5 mM HEPES (pH 7.4 with the corresponding hydroxide). Data acquisition was performed using a Digidata 1550 digitizer (Molecular devices; sampled at 10 kHz) and pCLAMP 10 software (Molecular Devices). Microelectrodes from borosilicate glass capillaries (Harvard Apparatus) were prepared to have resistances around 0.2-1.0 MQ2 using a P-1000 Flaming/Brown Micropipette Puller System (Sutter Instrument) and backfilled with 3 M KCl. Aconitine and veratridine (Alomone Labs) were dissolved in DMSO to make 50 mM stocks, and were further diluted to 300 and 100 μM in ND96 for electrophysiological experiments. Other NaV activators (Alomone Labs; FIGS. 8A-D) were dissolved in water to make stock solutions. The voltage dependence of ion current was determined using a protocol consisting of steps from a holding potential of 0 mV to voltages ranging from +80 to −100 mV for 1 s in 20 mV increment.

[3] = molecular target: T2, human NaX (Homo sapiens, UniProt Q01118); test: Two-electrode voltage-clamp of oocytes expressing human NaX with classical NaV channel activators; type: cell-based; settings: different voltage-step protocols in oocytes; wild-type human NaX
T2 construct: expressed in transfected cells; host or cells: Xenopus laevis oocytes injected with in vitro transcribed capped RNA
T2 sequence (Q01118 whole entry): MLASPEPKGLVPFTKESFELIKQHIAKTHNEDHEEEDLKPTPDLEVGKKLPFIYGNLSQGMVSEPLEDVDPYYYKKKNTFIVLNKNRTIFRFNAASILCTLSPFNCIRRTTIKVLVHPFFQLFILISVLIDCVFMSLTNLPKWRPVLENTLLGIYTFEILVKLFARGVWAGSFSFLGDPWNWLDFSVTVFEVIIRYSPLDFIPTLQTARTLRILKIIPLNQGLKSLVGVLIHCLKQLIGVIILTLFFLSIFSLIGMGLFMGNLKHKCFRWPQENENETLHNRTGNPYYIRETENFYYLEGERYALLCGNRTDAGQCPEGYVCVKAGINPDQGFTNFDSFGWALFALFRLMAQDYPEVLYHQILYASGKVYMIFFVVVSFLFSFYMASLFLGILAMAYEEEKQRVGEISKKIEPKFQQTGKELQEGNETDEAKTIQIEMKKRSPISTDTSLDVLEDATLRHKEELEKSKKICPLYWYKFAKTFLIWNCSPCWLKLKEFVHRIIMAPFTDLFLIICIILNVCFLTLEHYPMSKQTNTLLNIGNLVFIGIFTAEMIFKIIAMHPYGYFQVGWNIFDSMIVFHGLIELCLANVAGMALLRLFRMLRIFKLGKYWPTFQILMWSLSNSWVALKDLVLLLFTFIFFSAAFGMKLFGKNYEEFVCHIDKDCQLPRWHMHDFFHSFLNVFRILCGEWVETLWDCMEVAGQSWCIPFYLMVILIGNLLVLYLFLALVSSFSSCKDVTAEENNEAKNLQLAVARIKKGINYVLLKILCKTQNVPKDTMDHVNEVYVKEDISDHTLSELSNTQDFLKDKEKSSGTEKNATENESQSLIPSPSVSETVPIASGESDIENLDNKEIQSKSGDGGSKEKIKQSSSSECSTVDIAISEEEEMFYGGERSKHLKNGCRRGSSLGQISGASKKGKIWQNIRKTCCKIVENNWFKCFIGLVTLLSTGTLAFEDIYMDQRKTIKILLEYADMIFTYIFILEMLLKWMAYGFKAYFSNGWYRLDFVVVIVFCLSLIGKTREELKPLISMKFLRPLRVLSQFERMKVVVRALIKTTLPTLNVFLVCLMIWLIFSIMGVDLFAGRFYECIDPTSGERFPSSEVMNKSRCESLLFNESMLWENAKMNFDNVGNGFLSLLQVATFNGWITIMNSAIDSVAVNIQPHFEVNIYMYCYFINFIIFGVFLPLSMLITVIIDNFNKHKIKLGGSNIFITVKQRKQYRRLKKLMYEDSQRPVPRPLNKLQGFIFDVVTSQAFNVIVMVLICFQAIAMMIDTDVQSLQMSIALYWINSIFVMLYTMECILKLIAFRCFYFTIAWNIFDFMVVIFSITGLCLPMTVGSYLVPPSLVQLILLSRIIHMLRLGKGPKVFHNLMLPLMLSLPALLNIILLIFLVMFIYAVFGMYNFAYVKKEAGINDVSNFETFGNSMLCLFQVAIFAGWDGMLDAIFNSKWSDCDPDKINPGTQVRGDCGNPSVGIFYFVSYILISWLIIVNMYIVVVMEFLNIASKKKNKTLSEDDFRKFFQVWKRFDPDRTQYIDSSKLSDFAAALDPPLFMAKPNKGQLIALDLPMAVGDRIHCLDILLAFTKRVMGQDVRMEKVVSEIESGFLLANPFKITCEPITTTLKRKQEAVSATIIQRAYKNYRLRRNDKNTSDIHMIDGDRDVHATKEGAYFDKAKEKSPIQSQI
From the text: FIGS. 8A-D show functional evaluation of human NaX in Xenopus laevis oocytes. FIGS. 8A, left panel, and 8B, left panel, show representative currents from Xenopus laevis oocytes expressing human NaX with the indicated pharmacological modulator present in the extracellular solution. […] FIGS. 8C, left panel, and 8D, left panel, show representative currents from oocytes expressing human NaX with the indicated proteins co-expressed. FIG. 8C, right panel, show I-V plots with steps between +80 and −100 mV, in 20 mV increments, from a HP of 0 mV.
(§3) Oocytes were prepared as previously described^68. Healthy-looking stage V-VI oocytes were injected with 2.5-40 ng of RNA (in 5-41 nL) using a Nanoliter 2010 injector (World Precision Instruments). When excluding one or more construct, an equivalent volume of nuclease-free water was added to maintain a constant RNA concentration across different construct combinations. Injected oocytes were kept at 18° C., 140 rpm, in ND96 supplemented with 50 μg/mL gentamicin and 50 μg/mL tetracycline (in mM: 96 NaCl, 2 KCl, 1 MgCl2, 1.8 CaCl2), 2.5 sodium pyruvate, 0.5 theophylline, 5 HEPES; pH 7.4 with NaOH) for two to five days. […] The voltage dependence of ion current was determined using a protocol consisting of steps from a holding potential of 0 mV to voltages ranging from +80 to −100 mV for 1 s in 20 mV increment.

[4] = tested on: HEK293T cells; test: Whole-cell patch clamp of HEK293T cells expressing NaX-QTT, reversal potential and ion selectivity; type: cell-based, human
Protocol: HEK293T cells expressing NaX- or NaX-QTT-eGFP-2×FLAG were seeded on glass cover slips an hour before whole-cell patch-clamping experiments. For a more physiological condition (FIGS. 4D and 7B), the extracellular solution contained 150 mM NaCl, 5 mM KCl, 0.5 mM CaCl2, 1.2 mM MgCl2, 10 mM HEPES, and 13 mM D-(+)-glucose (pH 7.4) with NaOH, ˜320 mOsm/L, and the intracellular solution contained 140 mM CsCl, 10 mM CsF, 5 mM EGTA, 10 mM HEPES, and 2 mM Na2ATP (pH 7.2) with CsOH, ˜304 mOsm/L. To determine if NaX-QTT was cation-permeable, we first substituted all extracellular cations with NMDG^+ (FIG. 4E). Extracellular solution contained 150 mM NMDG and 10 mM HEPES (D-(+)-glucose was added accordingly to achieve osmolarity ˜325 mOsm/L and pH was adjusted to 7.4 with hydrochloric acid). To determine if NaX-QTT was anion-permeable, we substituted all Cl^− ions in both intra- and extracellular solutions with the large anion methanesulfonate (MS^−) (FIG. 15C). The extracellular solution contained 150 mM NaMS and 10 mM HEPES (D-(+)-glucose was added accordingly to achieve osmolarity ˜325 mOsm/L, and pH was adjusted to 7.4 with NaOH). The intracellular solution contained 136 mM NaMS, 10 mM NaF, 5 mM EGTA, 10 mM HEPES, and 2 mM Na2ATP (pH 7.2 with NaOH, ˜309 mOsm/L). The extracellular NMDG solution contained 150 NMDG and 10 mM HEPES (D-(+)-glucose was added accordingly to achieve osmolarity ˜325 mOsm/L, and pH was adjusted to 7.4 with methanesulfonic acid).
For ion-selectivity experiments (FIGS. 4E and 5A) (i) involving monovalent cations, the extracellular solution contained 150 mM XCl, 10 mM HEPES, and D-(+)-glucose was added accordingly to achieve osmolarity ˜325 mOsm/L, and the pH was adjusted to 7.4 with XOH, where X indicates the cation of interest (Na^+, K^+, Li+ or Cs+); (ii) involving Ca^2+, the extracellular solution contained 110 mM CaCl2, 10 mM HEPES, and D-(+)-glucose was added accordingly to achieve osmolarity ˜325 mOsm/L, and the pH was adjusted to 7.4 with Ca(OH)2; (iii) the intracellular solution contained 136 mM NaCl, 10 mM NaF, 5 mM EGTA, 10 mM HEPES, and 2 mM Na2ATP (pH 7.2) with NaOH, ˜309 mOsm/L.
as §2

[5] = tested on: Xenopus laevis oocytes; test: Current amplitude of Xenopus laevis oocytes expressing the constructs (function of construct); type: cell-based; settings: voltage-step protocols
Protocol: (*p<0.05; **p<0.01; ****p<0.0001; one-way ANOVA, Dunnett's test against NaX.)
as §3, with “days. Two-electrode voltage-clamp measurements were performed at room temperature using a Warner OC-725C Oocyte Clamp amplifier (Warner Instrument Corp, USA) and under constant perfusion with ND96 solution (in mM: 96 NaCl, 2 KCl, 1 MgCl2, 1.8 CaCl2, 5 HEPES; pH 7.4 with NaOH). For ion selectivity experiments, external solutions contained 115 mM of test cations as chloride salts, 1.2 mM CaCl2, 2 mM MgCl2, 5 mM HEPES (pH 7.4 with the corresponding hydroxide).” for “days.”, “increment. […]” for “increment.”

[6] = reported for pathogenic mutation; cited from earlier work
[7] = tested on: Xenopus laevis oocytes; test: Voltage dependence of activation and steady-state inactivation of mutant NaV channels; type: cell-based; settings: NaV1.7 mutant
[8] = 1 mM, oocytes, step from 0 to +80 mV
[9] = at concentrations up to 300 μM, oocytes

T1 sequence (Q01118 whole entry F724Q/I1189T/I1492T): as the sequence (Q01118 whole entry) above, with F724Q, I1189T, I1492T counted along it

## [Ca+2] [Ca^2+]
[1]; HEK293T cells, extracellular CaCl2
  permeation through NaX-QTT: does not permeate
[1]; NaX-QTT versus NaV channels
  potency of extracellular Ca^2+ block on NaX relative to traditional NaV channels: ~10 fold
[1]; extracellular Ca^2+ 1 mM, HEK293T cells, NaX-QTT, at 80 mV
  inhibition of the outward Na^+ current: ~70%

## [Co+2] [Co^2+]
[2]; [8]
  inhibition of NaX-QTT currents: inhibited

## [Gd+3] [Gd^3+]
[2]; trivalent cation, oocytes
  inhibition of NaX-QTT currents compared with Zn^2+ and Co^2+: more potent

## [Zn+2] [Zn^2+]
[2]; [8]
  inhibition of NaX-QTT currents: inhibited

## CCN1C[C@]2(COC)[C@H](O)C[C@H](OC)[C@@]34[C@@H]5C[C@@]6(O)[C@H](OC(=O)c7ccccc7)[C@@H]5[C@@](OC(C)=O)([C@@H]([C@H](OC)[C@H]23)[C@@H]14)[C@@H](O)[C@@H]6OC [aconitine]
[3]
  activation of human NaX-mediated currents: did not invoke any clear human NaX-mediated currents

## O=C(NCC1CCCCN1)c1cc(OCC(F)(F)F)ccc1OCC(F)(F)F (centres unmarked) [flecainide]
[2]; [9]
  inhibition of NaX-QTT currents: strong inhibitory effects were not observed

## CN(C)C(=O)C(CCN1CCC(O)(c2ccc(Cl)cc2)CC1)(c1ccccc1)c1ccccc1 [loperamide]
[2]
  inhibition of NaX-QTT currents: equally potent inhibitors

## O=C1NC(=O)C(c2ccccc2)(c2ccccc2)N1 [phenytoin]
[2]; [9]
  inhibition of NaX-QTT currents: strong inhibitory effects were not observed

## C=C[C@H]1C[N@@]2CC[C@H]1C[C@@H]2[C@@H](O)c1ccnc2ccc(OC)cc12 [quinidine]
[2]; at high μM concentrations, oocytes
  inhibition of NaX-QTT currents: equally potent inhibitors

## COc1ccccc1OCC(O)CN1CCN(CC(=O)Nc2c(C)cccc2C)CC1 (centres unmarked) [ranolazine]
[2]; [9]
  inhibition of NaX-QTT currents: strong inhibitory effects were not observed

## NC1=N[C@H](O)[C@H]2[C@H]3O[C@]4(O)O[C@@H]([C@@H](O)[C@@]2(N1)[C@@H]4O)[C@]3(O)CO [tetrodotoxin]
[2]
  inhibitory effect on NaX-QTT: inhibitory effects

## Construct 24: triple-mutant NaX channel construct (F724Q-I1189T-I1492T) with polar substitutions at three S6-gate lining positions
[4]; HEK293T cells, all extracellular cations replaced with NMDG
  reversal potential: below −100 mV
[4]; HEK293T cells, physiological extracellular solution
  reversal potential: +5 mV
[4]; extracellular monovalent cations 150 mM
  discrimination between monovalent cations: does not effectively discriminate
[4]; symmetrical NaCl/NaCl, ramp −80 to +80 mV, 150 mM Na^+ intracellular
  reversal potential: ~0 mV
[5]
  ionic currents of the construct expressed alone: robust ionic currents

## Construct 25: L390E/I1189E/I1492E triple-mutant NaX channel construct
[5]
  ionic currents of the construct expressed alone: much lower current amplitudes

## Ser211Pro: pathogenic Ser211Pro mutation in NaV1.7
[6]
  hyperpolarization of channel activation: −12 mV

## Ser1269Phe: Ser1269Phe substitution in NaV1.7
[7]
  depolarizing shift of activation: ~8 mV

## ΔLeu966: in-frame DII-S6 deletion in NaV1.7
[7]
  hyperpolarization of activation: −16 mV

B1: Ser209Phe: pathogenic Ser209Phe mutation in KCNQ1 (protein, UniProt P51787 1-676, looked up, variant S209F)
Potassium voltage-gated …: MAAASSPPRAERKRWGWGRLPGARRGSAGLAKKCPFSLELAEGGPAGGALYAPIAPGAPGPAPPASPAAPAAPPVASDLGPRPPVSLDPRVSIYSTRRPVLARTHVQGRVYNFLERPTGWKCFVYHFAVFLIVLVCLIFSVLSTIEQYAALATGTLFWMEIVLVVFFGTEYVVRLWSAGCRSKYVGLWGRLRFARKPISIIDLIVVVAFMVVLCVGSKGQVFATSAIRGIRFLQILRMLHVDRQGGTWRLLGSVVFIHRQELITTLYIGFLGLIFSSYFVYLAEKDAVNESGRVEFGSYADALWWGVVTVTTIGYGDKVPQTWVGKTIASCFSVFAISFFALPAGILGSGFALKVQQKQRQKHFNRQIPAAASLIQTAWRCYAAENPDSSTWKIYIRKAPRSHTLLSPSPKPKKSVVVKKKKFKLDKDNGVTPGEKMLTVPHITCDPPEERRLDHFSVDGYDSSVRKSPTLLEVSMPHFMRTNSFAEDLDLEGETLLTPITHISQLREHHRATIKVIRRMQYFVAKKKFQQARKPYDVRDVIEQYSQGHLNLMVRIKELQRRLDQSIGKPSLFISVSEKSKDRGSNTIGARLNRVEDKVTQLDQRLALITDMLHQLLSLHGGSTPGSGGPPREGGAHITQPCGSGGSVDPELFLPSNTLPTYEQLTVPRRGPDEGS
[6]
  hyperpolarization of channel activation: −45 mV

Source: patent US20250164502A1, “Mutant Human Nax Proteins and Screening Methods” (Genentech, Inc., priority 2021, published 2025)
